The molecules below were run against T1, ACK1 (Homo sapiens, UniProt Q07912) (assay: ACK1 IC50 (Table 1, assay not specified)).
T1 construct: purchased Reaction Biology
T1 sequence (Q07912 whole entry): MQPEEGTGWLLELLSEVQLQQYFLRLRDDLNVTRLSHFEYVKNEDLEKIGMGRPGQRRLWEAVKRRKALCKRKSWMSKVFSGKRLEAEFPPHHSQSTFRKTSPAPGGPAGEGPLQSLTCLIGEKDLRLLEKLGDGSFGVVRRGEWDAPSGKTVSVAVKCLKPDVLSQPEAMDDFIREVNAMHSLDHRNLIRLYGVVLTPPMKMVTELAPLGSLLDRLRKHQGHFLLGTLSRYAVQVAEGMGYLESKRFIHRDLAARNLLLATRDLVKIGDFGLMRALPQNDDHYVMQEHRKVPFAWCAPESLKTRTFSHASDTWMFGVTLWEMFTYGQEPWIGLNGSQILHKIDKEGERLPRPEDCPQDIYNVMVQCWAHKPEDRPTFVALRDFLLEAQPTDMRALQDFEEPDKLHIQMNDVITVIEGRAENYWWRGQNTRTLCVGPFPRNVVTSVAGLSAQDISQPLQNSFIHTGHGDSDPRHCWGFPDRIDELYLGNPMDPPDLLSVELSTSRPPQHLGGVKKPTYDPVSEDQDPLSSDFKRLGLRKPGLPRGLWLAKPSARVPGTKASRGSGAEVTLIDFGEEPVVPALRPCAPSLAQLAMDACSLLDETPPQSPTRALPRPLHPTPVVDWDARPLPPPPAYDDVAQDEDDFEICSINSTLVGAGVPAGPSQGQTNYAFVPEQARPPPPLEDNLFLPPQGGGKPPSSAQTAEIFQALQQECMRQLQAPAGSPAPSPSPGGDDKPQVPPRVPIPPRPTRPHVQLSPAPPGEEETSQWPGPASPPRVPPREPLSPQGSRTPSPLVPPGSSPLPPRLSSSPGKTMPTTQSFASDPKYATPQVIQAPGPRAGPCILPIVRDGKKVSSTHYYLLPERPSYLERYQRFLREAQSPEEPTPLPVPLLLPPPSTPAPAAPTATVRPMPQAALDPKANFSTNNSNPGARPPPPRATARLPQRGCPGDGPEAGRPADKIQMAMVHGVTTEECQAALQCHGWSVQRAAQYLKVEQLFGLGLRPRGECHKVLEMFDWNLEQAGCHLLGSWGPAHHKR
Assay type: biochemical
In the case of `Fc1cc(Nc2ncc(Cl)c(NC[C@H]3CCCO3)n2)ccc1OCCN1CCCC1` [(R)-5-chloro-N^2-(3-fluoro-4-(2-(pyrrolidin-1-yl)ethoxy)phenyl)-N^4-((tetrahydrofuran-2-yl)methyl)pyrimidine-2,4-diamine], the IC50 is reported as 60.1 nM.
Molecule `OCCn1cc(-c2ccc(Nc3ncc(Cl)c(NC[C@H]4CCCO4)n3)cc2F)cn1` [(R)-2-(4-(4-((5-chloro-4-(((tetrahydrofuran-2-yl)methyl)amino)pyrimidin-2-yl)amino)-2-fluorophenyl)-1H-pyrazol-1-yl)ethan-1-ol] has an IC50 of 46.1 nM.
`Fc1cc(Nc2ncc(Cl)c(NC[C@H]3CCCO3)n2)ccc1-c1cnn(C2CCOCC2)c1` [(R)-5-chloro-N^2-(3-fluoro-4-(1-(tetrahydro-2H-pyran-4-yl)-1H-pyrazol-4-yl)phenyl)-N^4-((tetrahydrofuran-2-yl)methyl)pyrimidine-2,4-diamine] was tested, and the IC50 was 78.7 nM.
In the case of `Clc1cnc(Nc2ccc(OCCN3CCCC3)cc2)nc1NC[C@H]1CCCO1` [(R)-5-chloro-N^2-(4-(2-(pyrrolidin-1-yl)ethoxy)phenyl)-N^4-((tetrahydrofuran-2-yl)methyl)pyrimidine-2,4-diamine], the IC50 is reported as 56.5 nM.
For `COCCn1cc(-c2ccc(Nc3ncc(Cl)c(NC[C@H]4CCCO4)n3)cc2F)cn1` [(R)-5-chloro-N^2-(3-fluoro-4-(1-(2-methoxyethyl)-1H-pyrazol-4-yl)phenyl)-N^4-((tetrahydrofuran-2-yl)methyl)pyrimidine-2,4-diamine], the IC50 was 137 nM.

The molecules below were run against T1, ACK1 (assay: ACK1 ELISA % inhibition at 100 nM).
Assay type: biochemical
For `COc1cc(N2CCN(C)CC2)ccc1Nc1ncc(Cl)c(N[C@H](C)c2ccc(Cl)cc2)n1` [(R)-5-chloro-N^4-(1-(4-chlorophenyl)ethyl)-N^2-(2-methoxy-4-(4-methylpiperazin-1-yl)phenyl)pyrimidine-2,4-diamine], the inhibition at 0.1 µM was 50.2%.
Work on `COc1cc(N2CCN(C)CC2)ccc1Nc1ncc(C)c(Nc2cccc(NS(=O)(=O)C(C)(C)C)c2)n1` [N-(3-((2-((2-methoxy-4-(4-methylpiperazin-1-yl)phenyl)amino)-5-methylpyrimidin-4-yl)amino)phenyl)-2-methylpropane-2-sulfonamide] yielded an inhibition at 0.1 µM of 100%.
In the case of `COc1cc(N2CCN(C)CC2)ccc1Nc1ncc(Cl)c(NCc2ccc(C(F)(F)F)cc2)n1` [5-chloro-N^2-(2-methoxy-4-(4-methylpiperazin-1-yl)phenyl)-N^4-(4-(trifluoromethyl)benzyl)pyrimidine-2,4-diamine], the inhibition at 0.1 µM is reported as 31.1%.
With `COc1cc(N2CCN(C)CC2)ccc1Nc1ncc(C)c(Nc2ccc(Cl)c(NS(=O)(=O)C(C)(C)C)c2)n1` [N-(2-chloro-5-((2-((2-methoxy-4-(4-methylpiperazin-1-yl)phenyl)amino)-5-methylpyrimidin-4-yl)amino)phenyl)-2-methylpropane-2-sulfonamide] the inhibition at 0.1 µM was 98.7%.
With `COc1cc(N2CCN(C)CC2)ccc1Nc1ncc(Cl)c(N[C@@H](C)c2ccc(Cl)cc2)n1` [(S)-5-chloro-N^4-(1-(4-chlorophenyl)ethyl)-N^2-(2-methoxy-4-(4-methylpiperazin-1-yl)phenyl)pyrimidine-2,4-diamine] the inhibition at 0.1 µM was 17.5%.
`COc1cc(N2CCN(C)CC2)ccc1Nc1ncc(Cl)c(N(CCc2ccccc2)CC2CCCO2)n1` (stereo not shown) [5-chloro-N^2-(2-methoxy-4-(4-methylpiperazin-1-yl)phenyl)-N^4-phenethyl-N^4-((tetrahydrofuran-2-yl)methyl)pyrimidine-2,4-diamine] showed an inhibition at 0.1 µM of 38.5%.
For `CN1CCN(c2ccc(Nc3ncc(Cl)c(N(CCc4ccccc4)CC4CCCO4)n3)cc2)CC1` (stereo not shown) [5-chloro-N^2-(4-(4-methylpiperazin-1-yl)phenyl)-N^4-phenethyl-N^4-((tetrahydrofuran-2-yl)methyl)pyrimidine-2,4-diamine], the inhibition at 0.1 µM was 32%.

Each molecule was assayed against T1, ACK1 (assay: Reaction Biology 33P Hotspot assay).
Assay type: biochemical
`CN1CCN(c2ccc(Nc3ncc(Cl)c(NCC4CCOCC4)n3)c(O)c2)CC1` [2-((5-chloro-4-(((tetrahydro-2H-pyran-4-yl)methyl)amino)pyrimidin-2-yl)amino)-5-(4-methylpiperazin-1-yl)phenol] showed an IC50 of 55.3 nM.
`COc1cc(Nc2ncc(Cl)c(NCC3CCOCC3)n2)ccc1-c1cnn(C)c1` [5-chloro-N^2-(3-methoxy-4-(1-methyl-1H-pyrazol-4-yl)phenyl)-N^4-((tetrahydro-2H-pyran-4-yl)methyl)pyrimidine-2,4-diamine] showed an IC50 of 27.6 nM.
`Clc1cnc(Nc2cnn(C3CCOCC3)c2)nc1NCC1CCOCC1` [5-chloro-N^2-(1-(tetrahydro-2H-pyran-4-yl)-1H-pyrazol-4-yl)-N^4-((tetrahydro-2H-pyran-4-yl)methyl)pyrimidine-2,4-diamine] showed an IC50 of 90 nM.
In the case of `COc1cc(N2CCN(C)CC2)c(F)cc1Nc1ncc(C)c(NCC2CCOCC2)n1` [N^2-(5-fluoro-2-methoxy-4-(4-methylpiperazin-1-yl)phenyl)-5-methyl-N^4-((tetrahydro-2H-pyran-4-yl)methyl)pyrimidine-2,4-diamine], the IC50 is reported as 14.7 nM.
For `Cn1cc(-c2ccc(Nc3ncc(Cl)c(NC[C@H]4CCCO4)n3)cc2)cn1` [(R)-5-chloro-N^2-(4-(1-methyl-1H-pyrazol-4-yl)phenyl)-N^4-((tetrahydrofuran-2-yl)methyl)pyrimidine-2,4-diamine], the IC50 was 128 nM.
Work on `CC(C)Oc1cc(Nc2ncc(Cl)c(NCC3CCOCC3)n2)ccc1-c1cnn(C)c1` [5-chloro-N^2-(3-isopropoxy-4-(1-methyl-1H-pyrazol-4-yl)phenyl)-N^4-((tetrahydro-2H-pyran-4-yl)methyl)pyrimidine-2,4-diamine] yielded an IC50 of 23.6 nM.
With `CC(C)Oc1cc(Nc2ncc(Cl)c(N[C@H](C)C3CCOCC3)n2)ccc1C1CCN(C)CC1` [(R)-5-chloro-N^2-(3-isopropoxy-4-(1-methylpiperidin-4-yl)phenyl)-N^4-(1-(tetrahydro-2H-pyran-4-yl)ethyl)pyrimidine-2,4-diamine] the IC50 was 40.8 nM.
Work on `COc1cc(N2CCN(C)CC2)ccc1Nc1ncc(C)c(NCC2CCOCC2)n1` [N^2-(2-methoxy-4-(4-methylpiperazin-1-yl)phenyl)-5-methyl-N^4-((tetrahydro-2H-pyran-4-yl)methyl)pyrimidine-2,4-diamine] yielded an IC50 of 34.5 nM.
`CN1CCC(n2cc(Nc3ncc(Cl)c(NCC4CCOCC4)n3)cn2)CC1` [5-chloro-N^2-(1-(1-methylpiperidin-4-yl)-1H-pyrazol-4-yl)-N^4-((tetrahydro-2H-pyran-4-yl)methyl)pyrimidine-2,4-diamine] gave an IC50 of 138 nM.
With `COc1cc(Nc2ncc(Cl)c(NC[C@H]3CCCO3)n2)ccc1-c1cnn(C)c1` [(R)-5-chloro-N^2-(3-methoxy-4-(1-methyl-1H-pyrazol-4-yl)phenyl)-N^4-((tetrahydrofuran-2-yl)methyl)pyrimidine-2,4-diamine] the IC50 was 40.4 nM.
With `Cn1cc(-c2ccc(Nc3ncc(Cl)c(NCC4CCOCC4)n3)cc2F)cn1` [5-chloro-N^2-(3-fluoro-4-(1-methyl-1H-pyrazol-4-yl)phenyl)-N^4-((tetrahydro-2H-pyran-4-yl)methyl)pyrimidine-2,4-diamine] the IC50 was 31 nM.
For `COc1cc(-n2cccn2)ccc1Nc1ncc(Cl)c(NC[C@H]2CCCO2)n1` [(R)-5-chloro-N^2-(2-methoxy-4-(1H-pyrazol-1-yl)phenyl)-N^4-((tetrahydrofuran-2-yl)methyl)pyrimidine-2,4-diamine], the IC50 was 64.6 nM.
`COc1cc(-n2cccn2)ccc1Nc1ncc(Cl)c(NCC2CCOCC2)n1` [5-chloro-N^2-(2-methoxy-4-(1H-pyrazol-1-yl)phenyl)-N^4-((tetrahydro-2H-pyran-4-yl)methyl)pyrimidine-2,4-diamine] gave an IC50 of 34.9 nM.
`CC(C)Oc1cc(-c2cnn(C)c2)ccc1Nc1ncc(Cl)c(NCC2CCOCC2)n1` [5-chloro-N^2-(2-isopropoxy-4-(1-methyl-1H-pyrazol-4-yl)phenyl)-N^4-((tetrahydro-2H-pyran-4-yl)methyl)pyrimidine-2,4-diamine] showed an IC50 of 232 nM.
`COc1cc(-c2cnn(C)c2)ccc1Nc1ncc(Cl)c(NCC2CCOCC2)n1` [5-chloro-N^2-(2-methoxy-4-(1-methyl-1H-pyrazol-4-yl)phenyl)-N^4-((tetrahydro-2H-pyran-4-yl)methyl)pyrimidine-2,4-diamine] gave an IC50 of 38.1 nM.
For `Cc1cnc(Nc2cc(F)c(C3CCN(C)CC3)c(F)c2)nc1Nc1ccc(Cl)c(OCC(C)C)c1` [N^4-(4-chloro-3-isobutoxyphenyl)-N^2-(3,5-difluoro-4-(1-methylpiperidin-4-yl)phenyl)-5-methylpyrimidine-2,4-diamine], the IC50 was 181 nM.
For `CN1CCN(Cc2ccc(Nc3ncc(Cl)c(NCC4CCOCC4)n3)cc2)CC1` [5-chloro-N^2-(4-((4-methylpiperazin-1-yl)methyl)phenyl)-N^4-((tetrahydro-2H-pyran-4-yl)methyl)pyrimidine-2,4-diamine], the IC50 was 69.1 nM.
`CC[C@@H](Nc1nc(Nc2ccc(C3CCN(C)CC3)c(OC(C)C)c2)ncc1Cl)C1CCOCC1` [(R)-5-chloro-N^2-(3-isopropoxy-4-(1-methylpiperidin-4-yl)phenyl)-N^4-(1-(tetrahydro-2H-pyran-4-yl)propyl)pyrimidine-2,4-diamine] gave an IC50 of 352 nM.
Work on `Clc1cnc(Nc2ccc(OCC3CCOCC3)cc2)nc1NC[C@H]1CCCO1` [(R)-5-chloro-N^2-(4-((tetrahydro-2H-pyran-4-yl)methoxy)phenyl)-N^4-((tetrahydrofuran-2-yl)methyl)pyrimidine-2,4-diamine] yielded an IC50 of 69 nM.
With `Cn1cc(Nc2ncc(Cl)c(NCC3CCOCC3)n2)cn1` [5-chloro-N^2-(1-methyl-1H-pyrazol-4-yl)-N^4-((tetrahydro-2H-pyran-4-yl)methyl)pyrimidine-2,4-diamine] the IC50 was 84 nM.
`CC(C)Oc1cc(Nc2ncc(Cl)c(N[C@H](C)C3CCOCC3)n2)ccc1N1CCN(C)CC1` [(R)-5-chloro-N^2-(3-isopropoxy-4-(4-methylpiperazin-1-yl)phenyl)-N^4-(1-(tetrahydro-2H-pyran-4-yl)ethyl)pyrimidine-2,4-diamine] showed an IC50 of 37 nM.
`Clc1cnc(Nc2ccc(OCC3CCOCC3)cc2)nc1NCC1CCOCC1` [5-chloro-N^2-(4-((tetrahydro-2H-pyran-4-yl)methoxy)phenyl)-N^4-((tetrahydro-2H-pyran-4-yl)methyl)pyrimidine-2,4-diamine] showed an IC50 of 46 nM.
